In paper PMC6008491, “Discovery of a novel allosteric inhibitor scaffold for polyadenosine-diphosphate-ribose polymerase 14 (PARP14) macrodomain 2” (Bioorganic & Medicinal Chemistry, 2018):
Structures can show the parent of a compound that is named as a salt. Where two headings read alike, the source gives them in different places.

Target: T1, PARP14 MD2 (Homo sapiens, UniProt Q460N5)
T1 sequence (Q460N5 1003-1190 limits assumed): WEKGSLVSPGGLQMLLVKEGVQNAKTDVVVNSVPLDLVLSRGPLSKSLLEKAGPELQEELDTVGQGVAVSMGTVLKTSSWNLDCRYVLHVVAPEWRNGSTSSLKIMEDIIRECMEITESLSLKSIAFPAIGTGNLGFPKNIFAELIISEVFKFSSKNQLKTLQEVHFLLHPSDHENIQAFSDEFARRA
Assay: AlphaScreen competitive binding assay, displacement of ADP-ribose peptide from PARP14 MD2
Design: PARP14 MD2 (second MD of PARP14)
Source text: Compounds were profiled for binding activity with PARP14 MD2 through a competitive (AlphaScreen™) binding assay measuring the displacement of ADP-ribose peptide from PARP14 MD2.[11a]

[1] = text and figures, read-out: PARP14 MD2 IC50
[2] = Table 1, AlphaScreen, PARP14 MD2, read-out: IC50
[3] = Table 2, AlphaScreen, PARP14 MD2, read-out: IC50

CC(Nc1ccccc1-c1cccc2c1[nH]c1ccccc12)C(F)(F)F (racemic) [compound 51, (±)-2-(9H-Carbazol-1-yl)-N-(1,1,1-trifluoropropan-2-yl)aniline]
inhibition of PARP14 MD2 (in words): complete loss of activity

CC(=O)Nc1ccncc1-c1cccc2c1[nH]c1ccccc12 [compound 15]
IC50 [1]: > 50 µM

CC(=O)Nc1cccnc1-c1cccc2c1[nH]c1ccccc12 [compound 16, N-[2-(9H-Carbazol-1-yl)pyridin-3-yl]acetamide]
IC50 [1]: > 50 µM

CC(=O)Nc1cnccc1-c1cccc2c1[nH]c1ccccc12 [compound 17]
IC50 [2]: > 50 µM

CC(=O)Nc1ccccc1-c1nccc2c1[nH]c1ccccc12 [compound 18]
IC50 [1]: 30 µM

CC(=O)Nc1ccccc1-c1cn2c3ccccc3c3ccnc(c1=O)c32 [compound 19]
IC50 [1]: > 50 µM

CC(=O)Nc1ccccc1-c1cn2c3ccccc3c3cccc(c1=O)c32 [compound 20, N-[2-(4-Oxo-4H-pyrido[3,2,1-jk]carbazol-5-yl)phenyl]acetamide]
IC50 [1]: > 50 µM

CC(=O)Nc1ccccc1-c1cccc2c3ccccc3n(C)c12 [compound 24, N-[2-(9-Methyl-9H-carbazol-1-yl)phenyl]acetamide]
IC50 [1]: > 50 µM

CC(=O)Nc1ccccc1-c1cccc2c3ccccc3n(Cc3ccccc3)c12 [compound 25, N-[2-(9-Benzyl-9H-carbazol-1-yl)phenyl]acetamide]
IC50 [1]: > 50 µM

CC(=O)Nc1ccccc1-c1cccc2c1oc1ccccc12 [compound 26, N-[2-(Dibenzofuran-4-yl)phenyl]acetamide]
IC50 [1]: > 50 µM

CC(=O)Nc1ccccc1-c1cccc2c1sc1ccccc12 [compound 27, N-[2-(Dibenzothiophen-4-yl)phenyl]acetamide]
IC50 [1]: 2.5 µM

CC(=O)Nc1ccccc1-c1cccc2c1C(=O)c1ccccc1-2 [compound 28, N-[2-(9-Oxo-9H-fluoren-1-yl)phenyl]acetamide]
IC50 [1]: > 50 µM

CC(=O)Nc1ccccc1-c1cccc2c1C(O)c1ccccc1-2 (stereo not shown) [compound 29, N-[2-(9-Hydroxy-9H-fluoren-1-yl)phenyl]acetamide]
IC50 [1]: > 50 µM

CC(=O)Nc1ccccc1-c1ccccc1Nc1ccccc1 [compound 31, N-[2'-(Phenylamino)-(1,1'-biphenyl)-2-yl]acetamide]
inhibition of PARP14 MD2 (in words): completely inactive

CC(=O)Nc1ccccc1-c1cccc2c(=O)c3ccccc3[nH]c12 [compound 33, N-[2-(9-Oxo-9,10-dihydroacridin-4-yl)phenyl]acetamid]
inhibition of PARP14 MD2 (in words): inactive

CC(=O)Nc1ccccc1-c1cccc2c1[nH]c1c(Cl)c(Cl)ccc12 [compound 37, N-[2-(7,8-Dichloro-9H-carbazol-1-yl)phenyl]acetamide]
IC50 [1]: 1.4 µM

CC(=O)Nc1ccccc1-c1cccc2c1[nH]c1ccc(Cl)cc12 [compound 38, N-[2-(6-Chloro-9H-carbazol-1-yl)phenyl]acetamide]
IC50 [1]: 3 µM

COc1ccc2[nH]c3c(-c4ccccc4NC(C)=O)cccc3c2c1 [compound 39, N-[2-(6-Methoxy-9H-carbazol-1-yl)phenyl]acetamide]
inhibition of PARP14 MD2 (in words): inactive

CC(=O)Nc1ccccc1-c1cccc2c3c([nH]c12)CCCC3 [compound 44, N-[2-(5,6,7,8-Tetrahydro-9H-carbazol-1-yl)phenyl]acetamide]
IC50 [1]: 1.1 µM

CC(=O)Nc1ccccc1-c1cccc2c3c([nH]c12)CCNC3 [compound 47, N-[2-(2,3,4,5-Tetrahydro-1H-pyrido[4,3-b]indol-6-yl)phenyl]acetamide hydrochloride]
inhibition of PARP14 MD2 (in words): inactive

CC(C)(C)NC(=O)Nc1ccccc1-c1cccc2c1[nH]c1ccccc12 [compound 49, 1-[2-(9H-Carbazol-1-yl)phenyl]-3-(tert-butyl)urea]
IC50 [2]: 7.2 ± 1.4 µM

CC(=S)Nc1ccccc1-c1cccc2c1[nH]c1ccccc12 [compound 52, N-[2-(9H-Carbazol-1-yl)phenyl]thioacetamide]
IC50 [2]: 10.5 ± 0.4 µM

CCNc1ccccc1-c1cccc2c1[nH]c1ccccc12 [compound 53, 2-(9H-Carbazol-1-yl)-N-ethylaniline]
IC50 [2]: > 50 µM

CCN(C(C)=O)c1ccccc1-c1cccc2c1[nH]c1ccccc12 [compound 54, N-[2-(9H-Carbazol-1-yl)phenyl]-N-ethylacetamide]
IC50 [2]: > 50 µM

Cc1ccc(-c2cccc3c2[nH]c2ccccc23)c(NS(C)(=O)=O)c1 [compound 55, N-(2-(9H-Carbazol-1-yl)-5-methylphenyl)methanesulfonamide]
IC50 [2]: 1.1 ± 0.1 µM

CS(=O)(=O)Nc1ccc(C(F)(F)F)cc1-c1cccc2c1[nH]c1ccccc12 [compound 58, N-(2-(9H-Carbazol-1-yl)-4-(trifluoromethyl)phenyl)methanesulfonamide]
IC50 [2]: > 50 µM

Cc1ccc(-c2cccc3c2[nH]c2ccccc23)c(N)c1 [compound 59, 2-(9H-Carbazol-1-yl)-5-methylaniline]
IC50 [2]: > 50 µM

Nc1ccc(C(F)(F)F)cc1-c1cccc2c1[nH]c1ccccc12 [compound 60, 2-(9H-Carbazol-1-yl)-4-(trifluoromethyl)aniline]
IC50 [2]: > 50 µM

Cc1cccc(N)c1-c1cccc2c1[nH]c1ccccc12 [compound 61, 2-(9H-Carbazol-1-yl)-3-methylaniline]
IC50 [2]: > 50 µM

CCS(=O)(=O)Nc1ccccc1-c1cccc2c1[nH]c1ccccc12 [compound 62, N-(2-(9H-carbazol-1-yl)phenyl)ethanesulfonamide]
IC50 [2]: 1.2 ± 0.03 µM

CCCS(=O)(=O)Nc1ccccc1-c1cccc2c1[nH]c1ccccc12 [compound 63, N-(2-(9H-Carbazol-1-yl)phenyl)propane-1-sulfonamide]
IC50 [2]: 2.9 ± 0.1 µM

CCCCS(=O)(=O)Nc1ccccc1-c1cccc2c1[nH]c1ccccc12 [compound 64, N-(2-(9H-Carbazol-1-yl)phenyl)butane-1-sulfonamide]
IC50 [2]: 3.3 ± 0.1 µM

CN(C)CC(=O)Nc1ccccc1-c1cccc2c1[nH]c1ccccc12 [compound 65, N-(2-(9H-carbazol-1-yl)phenyl)-2-(dimethylamino)acetamide]
IC50 [2]: 5.5 ± 0.6 µM

CCC(=O)Nc1ccccc1-c1cccc2c1[nH]c1ccccc12 [compound 66, N-(2-(9H-carbazol-1-yl)phenyl)propionamide]
IC50 [2]: 1 ± 0.03 µM

CCCC(=O)Nc1ccccc1-c1cccc2c1[nH]c1ccccc12 [compound 67, N-(2-(9H-carbazol-1-yl)phenyl)butyramide]
IC50 [2]: 0.9 ± 0.04 µM

CCCCC(=O)Nc1ccccc1-c1cccc2c1[nH]c1ccccc12 [compound 68, N-(2-(9H-carbazol-1-yl)phenyl)pentanamide]
IC50 [2]: > 50 µM

COCCS(=O)(=O)Nc1ccccc1-c1cccc2c1[nH]c1ccccc12 [compound 69, N-(2-(9H-Carbazol-1-yl)phenyl)-2-methoxyethane-1-sulfonamide]
IC50 [2]: 8.6 ± 0.4 µM

Cc1oncc1S(=O)(=O)Nc1ccccc1-c1cccc2c1[nH]c1ccccc12 [compound 70, N-(2-(9H-Carbazol-1-yl)phenyl)-5-methylisoxazole-4-sulfonamide]
IC50 [2]: > 50 µM

CN(C)S(=O)(=O)Nc1ccccc1-c1cccc2c1[nH]c1ccccc12 [compound 71, N1-(2-(9H-Carbazol-1-yl)phenyl)-N2,N2-dimethylsulfamide]
IC50 [2]: 2.5 ± 0.1 µM

O=S(=O)(Nc1ccccc1-c1cccc2c1[nH]c1ccccc12)c1ccccc1 [compound 72, N-(2-(9H-Carbazol-1-yl)phenyl)benzenesulfonamide]
IC50 [2]: > 50 µM

O=C(Nc1ccccc1-c1cccc2c1[nH]c1ccccc12)C(F)(F)F [compound 73, N-(2-(9H-carbazol-1-yl)phenyl)-2,2,2-trifluoroacetamide]
IC50 [2]: 1.1 ± 0.07 µM

O=C(Nc1ccccc1-c1cccc2c1[nH]c1ccccc12)C1CC1 [compound 74, N-(2-(9H-carbazol-1-yl)phenyl)cyclopropanecarboxamide]
IC50 [2]: 1.2 ± 0.03 µM

O=C(Nc1ccccc1-c1cccc2c1[nH]c1ccccc12)C1CCCCC1 [compound 75, N-(2-(9H-carbazol-1-yl)phenyl)cyclohexanecarboxamide]
IC50 [2]: > 50 µM

O=C(Nc1ccccc1-c1cccc2c1[nH]c1ccccc12)c1ccco1 [compound 76, N-(2-(9H-carbazol-1-yl)phenyl)furan-2-carboxamide]
IC50 [2]: > 50 µM

O=C(Nc1ccccc1-c1cccc2c1[nH]c1ccccc12)c1ccccc1 [compound 77, N-(2-(9H-carbazol-1-yl)phenyl)benzamide]
IC50 [2]: 1.9 ± 0.07 µM

O=C(Cc1ccccc1)Nc1ccccc1-c1cccc2c1[nH]c1ccccc12 [compound 78, N-(2-(9H-Carbazol-1-yl)phenyl)-2-phenylacetamide]
IC50 [2]: 7.6 ± 0.3 µM

O=S(=O)(Cc1ccccc1)Nc1ccccc1-c1cccc2c1[nH]c1ccccc12 [compound 79, N-(2-(9H-Carbazol-1-yl)phenyl)-1-phenylmethanesulfonamide]
IC50 [2]: 3.6 ± 0.3 µM

COc1ccccc1C(=O)Nc1ccccc1-c1cccc2c1[nH]c1ccccc12 [compound 80, N-(2-(9H-Carbazol-1-yl)phenyl)-2-methoxybenzamide]
IC50 [2]: > 50 µM

COc1cccc(C(=O)Nc2ccccc2-c2cccc3c2[nH]c2ccccc23)c1 [compound 81, N-(2-(9H-Carbazol-1-yl)phenyl)-3-methoxybenzamide]
IC50 [2]: 12.7 ± 1.5 µM

COc1ccc(C(=O)Nc2ccccc2-c2cccc3c2[nH]c2ccccc23)cc1 [compound 82, N-(2-(9H-Carbazol-1-yl)phenyl)-4-methoxybenzamide]
IC50 [2]: 9 ± 1.4 µM

N#Cc1cc(CC(=O)Nc2ccccc2-c2cccc3c2[nH]c2ccccc23)ccn1 [compound 86, N-(2-(9H-Carbazol-1-yl)phenyl)-2-(2-cyanopyridin-4-yl)acetamide]
IC50 [3]: 2.4 ± 0.2 µM

N#Cc1ccc(CC(=O)Nc2ccccc2-c2cccc3c2[nH]c2ccccc23)cn1 [compound 87, N-(2-(9H-Carbazol-1-yl)phenyl)-2-(6-cyanopyridin-3-yl)acetamide]
IC50 [3]: 3.5 ± 0.2 µM
